Reference: the NIST ThermoML archive (doi:10.1016/j.fluid.2014.09.011)
± gives the expanded uncertainty stated by the source.

Assay: activity coefficient (dimensionless); of the first substance listed, at infinite dilution; xn = mol fraction of the nth substance listed
Conditions: 298.15 K; 238 kPa; Liquid; Chromatography; x1 = 0

SMILES | activity coefficient
CC(C)(C)Cl [2-chloro-2-methylpropane] + CCOC(C)=O | 0.9 ± 0.2
CC(C)(C)Cl [2-chloro-2-methylpropane] + CCCCCO | 2.4 ± 0.4
CC(C)(C)Cl [2-chloro-2-methylpropane] + CO | 6.1 ± 0.3
CC(C)(C)Cl [2-chloro-2-methylpropane] + CC(C)O | 3 ± 0.6
CC(C)(C)Cl [2-chloro-2-methylpropane] + c1ccccc1 | 0.89 ± 0.08
CC(C)(C)Cl [2-chloro-2-methylpropane] + CCCCO | 2.4 ± 0.4
CC(C)(C)Cl [2-chloro-2-methylpropane] + CC(O)C(C)O | 12.3 ± 2
CC(C)(C)Cl [2-chloro-2-methylpropane] + OCCOCCOCCO | 6.8 ± 0.8
CC(C)(C)Cl [2-chloro-2-methylpropane] + OCCO | 51.7 ± 10
CC(C)(C)Cl [2-chloro-2-methylpropane] + C1CCCCC1 | 1.2 ± 0.2
CC(C)(C)Cl [2-chloro-2-methylpropane] + CCO | 4.5 ± 0.6
CC(C)(C)Cl [2-chloro-2-methylpropane] + ClCCCl | 0.99 ± 0.1
CC(C)(C)Cl [2-chloro-2-methylpropane] + CCCCCCO | 2.4 ± 0.2
CC(C)(C)Cl [2-chloro-2-methylpropane] + COCCO | 2.9 ± 0.4
CC(C)(C)Cl [2-chloro-2-methylpropane] + OCCOCCO | 11.2 ± 2
CC(C)(C)Cl [2-chloro-2-methylpropane] + CC(O)CCO | 18.1 ± 3.1
CC(C)(C)Cl [2-chloro-2-methylpropane] + CNC=O | 6.3 ± 0.3
CC(C)(C)Cl [2-chloro-2-methylpropane] + CCCCCCCC | 1.3 ± 0.2
CC(C)(C)Cl [2-chloro-2-methylpropane] + CCCCCCC | 1.02 ± 0.08
CC(C)(C)Cl [2-chloro-2-methylpropane] + CCCO | 3.1 ± 0.4
CC(C)(C)Cl [2-chloro-2-methylpropane] + CCC(O)CO | 6.4 ± 0.5
CC(C)(C)Cl [2-chloro-2-methylpropane] + CC(O)CO | 17.3 ± 2.1
